ChEMBL document CHEMBL1141816, “Massarinolins A-C: new bioactive sesquiterpenoids from the aquatic fungus massarina tunicata” (1999)
The source made the active and inactive calls. No cut-off for these calls is given here.

Legend:
Staphylococcus aureus = test: Antibacterial activity against Staphylococcus aureus ATCC 29213 at 200 ug/disk by standard disk assay; assay type: functional
Bacillus subtilis = test: Antibacterial activity against Bacillus subtilis ATCC 6051 at 200 ug/disk by standard disk assay; assay type: functional; conditions: for zone of inhibition at 200 µg/disc: read-out: IZ
Candida albicans = test: Antifungal activity against Candida albicans ATCC 14053 at 200 ug/disk by standard disk assay; assay type: functional, organism-based

Structure (SMILES): C=C1CC[C@H]2C[C@@H]1[C@]2(CO)C[C@H](O)/C=C(\C)C(=O)O
- Activity (Staphylococcus aureus): inactive
- Activity (Bacillus subtilis): inactive
- Activity (Candida albicans): inactive

Structure (SMILES): C=C1CC[C@H]2C[C@@H]1[C@@]21CO[C@]2(C=C(C)C(=O)O2)[C@H]1O [MASSARINOLIN A]
- zone of inhibition at 200 µg/disc (Staphylococcus aureus; read-out: IZ): 10 mm
- zone of inhibition at 200 µg/disc (Bacillus subtilis): 17 mm
- Activity (Candida albicans): inactive

Structure (SMILES): C/C(=C\[C@@H](O)C[C@@]12CO[C@]3(C)CC[C@H]1C[C@H]23)C(=O)O [MASSARINOLIN B]
- zone of inhibition at 200 µg/disc (Bacillus subtilis): 8 mm
- Activity (Candida albicans): inactive
